Laboratory results from the NIST ThermoML archive (doi:10.1016/j.fluid.2015.09.038).
± gives the expanded uncertainty stated by the source.

Tests used:
[1] = Molar enthalpy of transition or fusion; conditions: Crystal; DSC
[2] = Crystal; DTA

Row | Compound | Molar enthalpy of transition or fusion [1] [kcal/mol] | Normal melting temperature [2] [°C]
1 | CCCCCCCCCCCCCCCC(=O)OCC [ethyl hexadecanoate] | 12.7 ± 4.78 | 24.78 ± 2
2 | CCCCCCCCCCCCC1CCCCC1 [dodecylcyclohexane] | 10.8 ± 2.17 | 13.63 ± 2
3 | CCCCCCCCCCCC(=O)OCC [ethyl dodecanoate] | 9.15 ± 1.84 | -0.92 ± 2
